Measured values as given in patent publication US7118895B2, “Process for producing aglycon by using diglycosidase and flavor-improved food containing the aglycon and converting agent to be used in the process” (Amano Enzyme Inc., priority 2000, dated 2006).

Tested on: Crude diglycosidase
Experiment: Examination of substrate concentration in the conversion into isoflavone aglycons by diglycosidase using soybean materials;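 note: percent of the isoflavone family total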
Format: biochemical, Penicillium multicolor IAM7153
How it was run: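 Reaction at 55° C, shaken, pH 4.0 (20 mM acetate), using crude diglycosidase from a 1.88 AU/mL enzyme solution on soy flour, soymilk, defatted soybean or soy protein concentrate at 2, 5, 10, 20 or 30% (w/v). Isoflavone aglycons quantified by HPLC of ethanol extracts at 0, 1, 3, 6 h.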

## COc1cc2c(=O)c(-c3ccc(O)cc3)coc2cc1O[C@@H]1O[C@H](COC(=O)CC(=O)O)[C@@H](O)[C@H](O)[C@H]1O [malonylglycitin, 6″-O-malonylglycitin]
Defatted soybean, substrate concentration 10%, heat treatment of enzyme no, reaction time 3 h
  Decomposition efficiency: ratio of each glycoside/aglycon within its isoflavone family: 36.6%
Defatted soybean, substrate concentration 10%, heat treatment of enzyme no, reaction time 6 h
  Decomposition efficiency: ratio of each glycoside/aglycon within its isoflavone family: 27.9%
Defatted soybean, substrate concentration 10%, heat treatment of enzyme yes, reaction time 6 h
  Decomposition efficiency: ratio of each glycoside/aglycon within its isoflavone family: 57.6%
Roasted soy flour, substrate concentration 2%, heat treatment of enzyme no, reaction time 0 h
  Decomposition efficiency: ratio of each glycoside/aglycon within its isoflavone family: not detected
Roasted soy flour, substrate concentration 2%, heat treatment of enzyme no, reaction time 1 h
  Decomposition efficiency: ratio of each glycoside/aglycon within its isoflavone family: not detected
Roasted soy flour, substrate concentration 2%, heat treatment of enzyme no, reaction time 3 h
  Decomposition efficiency: ratio of each glycoside/aglycon within its isoflavone family: not detected
Roasted soy flour, substrate concentration 2%, heat treatment of enzyme no, reaction time 6 h
  Decomposition efficiency: ratio of each glycoside/aglycon within its isoflavone family: not detected
Roasted soy flour, substrate concentration 2%, heat treatment of enzyme yes, reaction time 6 h
  Decomposition efficiency: ratio of each glycoside/aglycon within its isoflavone family: not detected
Roasted soy flour, substrate concentration 5%, heat treatment of enzyme no, reaction time 0 h
  Decomposition efficiency: ratio of each glycoside/aglycon within its isoflavone family: not detected
Roasted soy flour, substrate concentration 5%, heat treatment of enzyme no, reaction time 1 h
  Decomposition efficiency: ratio of each glycoside/aglycon within its isoflavone family: not detected
Roasted soy flour, substrate concentration 5%, heat treatment of enzyme no, reaction time 3 h
  Decomposition efficiency: ratio of each glycoside/aglycon within its isoflavone family: not detected
Roasted soy flour, substrate concentration 5%, heat treatment of enzyme no, reaction time 6 h
  Decomposition efficiency: ratio of each glycoside/aglycon within its isoflavone family: not detected
Roasted soy flour, substrate concentration 5%, heat treatment of enzyme yes, reaction time 6 h
  Decomposition efficiency: ratio of each glycoside/aglycon within its isoflavone family: not detected
Roasted soy flour, substrate concentration 10%, heat treatment of enzyme no, reaction time 0 h
  Decomposition efficiency: ratio of each glycoside/aglycon within its isoflavone family: not detected
Roasted soy flour, substrate concentration 10%, heat treatment of enzyme no, reaction time 1 h
  Decomposition efficiency: ratio of each glycoside/aglycon within its isoflavone family: not detected
Roasted soy flour, substrate concentration 10%, heat treatment of enzyme no, reaction time 3 h
  Decomposition efficiency: ratio of each glycoside/aglycon within its isoflavone family: not detected
Roasted soy flour, substrate concentration 10%, heat treatment of enzyme no, reaction time 6 h
  Decomposition efficiency: ratio of each glycoside/aglycon within its isoflavone family: not detected
Roasted soy flour, substrate concentration 10%, heat treatment of enzyme yes, reaction time 6 h
  Decomposition efficiency: ratio of each glycoside/aglycon within its isoflavone family: not detected
Roasted soy flour, substrate concentration 20%, heat treatment of enzyme no, reaction time 0 h
  Decomposition efficiency: ratio of each glycoside/aglycon within its isoflavone family: not detected
Roasted soy flour, substrate concentration 20%, heat treatment of enzyme no, reaction time 1 h
  Decomposition efficiency: ratio of each glycoside/aglycon within its isoflavone family: not detected
Roasted soy flour, substrate concentration 20%, heat treatment of enzyme no, reaction time 3 h
  Decomposition efficiency: ratio of each glycoside/aglycon within its isoflavone family: not detected
Roasted soy flour, substrate concentration 20%, heat treatment of enzyme no, reaction time 6 h
  Decomposition efficiency: ratio of each glycoside/aglycon within its isoflavone family: not detected
Roasted soy flour, substrate concentration 20%, heat treatment of enzyme yes, reaction time 6 h
  Decomposition efficiency: ratio of each glycoside/aglycon within its isoflavone family: not detected
Roasted soy flour, substrate concentration 30%, heat treatment of enzyme no, reaction time 0 h
  Decomposition efficiency: ratio of each glycoside/aglycon within its isoflavone family: not detected
Roasted soy flour, substrate concentration 30%, heat treatment of enzyme no, reaction time 1 h
  Decomposition efficiency: ratio of each glycoside/aglycon within its isoflavone family: not detected
Roasted soy flour, substrate concentration 30%, heat treatment of enzyme no, reaction time 3 h
  Decomposition efficiency: ratio of each glycoside/aglycon within its isoflavone family: not detected
Roasted soy flour, substrate concentration 30%, heat treatment of enzyme no, reaction time 6 h
  Decomposition efficiency: ratio of each glycoside/aglycon within its isoflavone family: not detected
Roasted soy flour, substrate concentration 30%, heat treatment of enzyme yes, reaction time 6 h
  Decomposition efficiency: ratio of each glycoside/aglycon within its isoflavone family: not detected
soymilk, substrate concentration 2%, heat treatment of enzyme no, reaction time 0 h
  Decomposition efficiency: ratio of each glycoside/aglycon within its isoflavone family: 28.2%
soymilk, substrate concentration 2%, heat treatment of enzyme no, reaction time 1 h
  Decomposition efficiency: ratio of each glycoside/aglycon within its isoflavone family: not detected
soymilk, substrate concentration 2%, heat treatment of enzyme no, reaction time 3 h
  Decomposition efficiency: ratio of each glycoside/aglycon within its isoflavone family: not detected
soymilk, substrate concentration 2%, heat treatment of enzyme no, reaction time 6 h
  Decomposition efficiency: ratio of each glycoside/aglycon within its isoflavone family: not detected
soymilk, substrate concentration 2%, heat treatment of enzyme yes, reaction time 6 h
  Decomposition efficiency: ratio of each glycoside/aglycon within its isoflavone family: 48.2%
soymilk, substrate concentration 5%, heat treatment of enzyme no, reaction time 0 h
  Decomposition efficiency: ratio of each glycoside/aglycon within its isoflavone family: 50.6%
soymilk, substrate concentration 5%, heat treatment of enzyme no, reaction time 1 h
  Decomposition efficiency: ratio of each glycoside/aglycon within its isoflavone family: 24.6%
soymilk, substrate concentration 5%, heat treatment of enzyme no, reaction time 3 h
  Decomposition efficiency: ratio of each glycoside/aglycon within its isoflavone family: 7.5%
soymilk, substrate concentration 5%, heat treatment of enzyme no, reaction time 6 h
  Decomposition efficiency: ratio of each glycoside/aglycon within its isoflavone family: not detected
soymilk, substrate concentration 5%, heat treatment of enzyme yes, reaction time 6 h
  Decomposition efficiency: ratio of each glycoside/aglycon within its isoflavone family: 43.3%
soymilk, substrate concentration 10%, heat treatment of enzyme no, reaction time 0 h
  Decomposition efficiency: ratio of each glycoside/aglycon within its isoflavone family: 41.1%
soymilk, substrate concentration 10%, heat treatment of enzyme no, reaction time 1 h
  Decomposition efficiency: ratio of each glycoside/aglycon within its isoflavone family: 26.4%
soymilk, substrate concentration 10%, heat treatment of enzyme no, reaction time 3 h
  Decomposition efficiency: ratio of each glycoside/aglycon within its isoflavone family: 10.5%
soymilk, substrate concentration 10%, heat treatment of enzyme no, reaction time 6 h
  Decomposition efficiency: ratio of each glycoside/aglycon within its isoflavone family: 4.2%
soymilk, substrate concentration 10%, heat treatment of enzyme yes, reaction time 6 h
  Decomposition efficiency: ratio of each glycoside/aglycon within its isoflavone family: 37.0%
soymilk, substrate concentration 20%, heat treatment of enzyme no, reaction time 0 h
  Decomposition efficiency: ratio of each glycoside/aglycon within its isoflavone family: 41.3%
soymilk, substrate concentration 20%, heat treatment of enzyme no, reaction time 1 h
  Decomposition efficiency: ratio of each glycoside/aglycon within its isoflavone family: 27.8%
soymilk, substrate concentration 20%, heat treatment of enzyme no, reaction time 3 h
  Decomposition efficiency: ratio of each glycoside/aglycon within its isoflavone family: 9.4%
soymilk, substrate concentration 20%, heat treatment of enzyme no, reaction time 6 h
  Decomposition efficiency: ratio of each glycoside/aglycon within its isoflavone family: 5.9%
soymilk, substrate concentration 20%, heat treatment of enzyme yes, reaction time 6 h
  Decomposition efficiency: ratio of each glycoside/aglycon within its isoflavone family: 38.8%
soymilk, substrate concentration 30%, heat treatment of enzyme no, reaction time 0 h
  Decomposition efficiency: ratio of each glycoside/aglycon within its isoflavone family: 43.0%
soymilk, substrate concentration 30%, heat treatment of enzyme no, reaction time 1 h
  Decomposition efficiency: ratio of each glycoside/aglycon within its isoflavone family: 33.1%
soymilk, substrate concentration 30%, heat treatment of enzyme no, reaction time 3 h
  Decomposition efficiency: ratio of each glycoside/aglycon within its isoflavone family: 15.9%
soymilk, substrate concentration 30%, heat treatment of enzyme no, reaction time 6 h
  Decomposition efficiency: ratio of each glycoside/aglycon within its isoflavone family: 7.7%
soymilk, substrate concentration 30%, heat treatment of enzyme yes, reaction time 6 h
  Decomposition efficiency: ratio of each glycoside/aglycon within its isoflavone family: 37.5%
